The experiment deals with NLRP3. In words: IL-1β secretion assay in PMA-differentiated, LPS/nigericin-stimulated THP-1 cells (ELISA). It counts as cell-based. The conditions noted are these: Homo sapiens, 25 ng/mL LPS, nigericin. The protocol: Compounds as provided herein were tested in the following assay. Cell culture medium employed contained RPMI 1640 medium (89%), FBS (10%), Pen/Strep (1%), and 2-mercaptoethanol (0.05 mM). Freezing medium was made up of 90% FBS and 10% DMSO. THP-1 cells were removed from the liquid nitrogen and placed into a 37° C. water bath to thaw, until signs of ice dissipated. The cells were then added to 9 mL of warm cell culture medium and centrifuged for 5 minutes at 1000 rpm. The supernatant was discarded, and the cells were resuspended in new cell culture medium. THP-1 cells were then split and cultured in the cell culture medium, being passaged every 2-3 days with the cell density will be maintained between 5×10^5 and 1.5×10^6 viable cells/mL.
PMA was dissolved in DMSO to make a stock solution at 5 mg/ml and stored in 10 μl aliquots at −20° C. for single use. PMA is added to normal growth medium. LPS was diluted with 1 mL of water solution to provide a 1 mg/mL stock solution and stored in 15 μl aliquots at −20° C. for single use. Nigericin is diluted in ice cold 100% ethanol to 5 mg/ml (6.7 mM) and stored in 75 μL aliquots at −20° C. for single use. Serum-free media contains RPMI 1640 medium (99%), Pen/Strep (1%), and 2-mercaptoethanol (0.05 mM). The two control conditions used to qualify and normalize test compound dose-response curves were as follows: High Control=25 ng/mL LPS, 5 μM Nigericin, 0.5% DMSO, Low Control=25 ng/ml, LPS, 0.5% DMSO.
THP-1 cells were diluted to provide a suspension at a concentration of 1.0×10^6 cells/mL with the total volume of suspension required to enable the desired number of assay plates. The growth media was supplemented with PMA (5 ng/mL final concentration) and the cells were incubated at 37° C. under a humidified atmosphere of 5% CO2 for 40 h.
All media was carefully aspirated from each culture flask. The cells were washed carefully with 1× DPBS. The cells were then briefly digested with trypsin LE for 5 minutes at 23° C. and immediately resuspended in cell growth media. After resuspension, the cells were centrifuged at 1000 rpm for 3 minutes and the supernatant was discarded. The cells were resuspended in DPBS and once again centrifuged at 1000 rpm for 5 minutes. The supernatant was discarded and the cell pellet was resuspended in serum-free media supplemented with LPS (25 ng/mL final concentration) to enable the distribution of 30K THP-1 cells within 45 μL of media into each well of 384-well PDL-coated plates. The 384-well plates were then incubated at 37° C. under a humidified atmosphere of 5% CO2 for 2 h. Following this period, test compounds were dispensed by Tecan across the desired concentration range with all wells normalized to a final 0.5% DMSO concentration. The plates were then then incubated at 37° C. under a humidified atmosphere of 5% CO2 for 1 h. Following this period, 5 μL of the 5 mg/mL nigericin stock solution was added to each of the appropriate wells and plates were centrifuged at 1000 rpm for 30 seconds. The plates were the immediately reintroduced to the incubator at 37° C. under a humidified atmosphere of 5% CO2 for 2 h. After this time, 35 μL/well of supernatant was collected and transferred into v-bottom plate and centrifuged at 1000 rpm for 1 minute. These supernatant aliquots were analyzed using an IL-Iβ detection kit as described below. If needed, the test samples could be snap frozen and stored at −80° C. until analyzed.
To prepare each ELISA plate, capture antibody (mAb Mt175) was diluted with PBS to a final concentration of 2 μg/mL and then 20 μL of this solution was added to each well of the ELISA plate. Each plate was allowed to incubate overnight at 4° C. The next day, the capture antibody solution was removed and discarded. Each ELISA plate was washed 4 times with PBST followed by the addition of 25 uL/well of blocking buffer (Licor-927-40010) supplemented with 0.1% Tween 20. Each ELISA plate was then allowed to incubate for 1 hour at 23° C. […]

`O=C(Cn1nc(C(F)F)n2c(cc3sccc32)c1=O)Nc1ncccn1` [Example 2, 2-(5-(difluoromethyl)-8-oxothieno[2′,3′:4,5]pyrrolo[1,2-d][1,2,4]triazin-7(8H)-yl)-N-(pyrimidin-2-yl)acetamide] displayed an IC50 of 341 nM. In addition, under “class symbol”, the IC50 was less than 10000 nM.

As to `CC1(O)CC(NC(=O)Cn2nc(C(F)F)n3c(cc4sccc43)c2=O)C1` (stereo not drawn) [Example 3, 2-(5-(difluoromethyl)-8-oxothieno[2′,3′:4,5]pyrrolo[1,2-d][1,2,4]triazin-7(8H)-yl)-N-(3-cis-hydroxy-3-methylcyclobutyl)acetamide], the IC50 came to 101 nM. The compound further yielded an IC50 (class symbol) of less than 10000 nM.

For `O=C(Cn1nc(C(F)F)n2c(cc3scnc32)c1=O)Nc1ncc(F)cn1` [Example 6, 2-(5-(difluoromethyl)-8-oxothiazolo[5′,4′:4,5]pyrrolo[1,2-d][1,2,4]triazin-7(8H)-yl)-N-(5-fluoropyrimidin-2-yl)acetamide], inhibition was half-maximal at 149 nM (IC50). Moreover, the IC50 (class symbol) is less than 10000 nM.

`N#Cc1cnc(NC(=O)Cn2nc(C(F)F)n3c(cc4sccc43)c2=O)c(F)c1` [Example 4, N-(5-cyano-3-fluoropyridin-2-yl)-2-[12-(difluoromethyl)-9-oxo-5-thia-1,10,11-triazatricyclo[6.4.0.02,6]dodeca-2(6),3,7,11-tetraen-10-yl]acetamide]: the midpoint of inhibition, the IC50, lay at 252 nM. Under “class symbol”, this compound yielded an IC50 of less than 10000 nM.

As for `O=C(Cn1nc(CF)n2c(cc3sccc32)c1=O)Nc1ncc(F)cn1` [Example 5, 2-(5-(fluoromethyl)-8-oxothieno[2′,3′:4,5]pyrrolo [1,2-d][1,2,4]triazin-7(8H)-yl)-N-(5-fluoropyrimidin-2-yl)acetamide], the IC50 is 94 nM. The IC50 (class symbol) was less than 10000 nM.

`O=C(Cn1nc(C(F)F)n2c(cc3sccc32)c1=O)Nc1ncc(F)cn1` [Example 1, 2-(5-(difluoromethyl)-8-oxothieno[2′,3′:4,5]pyrrolo[1,2-d][1,2,4]triazin-7(8H)-yl)-N-(5-fluoropyrimidin-2-yl)acetamide] had an IC50 of 162 nM. The compound further yielded an IC50 (class symbol) of less than 10000 nM.

(Values after US20240391932A1, “COMPOUNDS, COMPOSITIONS AND METHODS” (Nico Therapeutics, Inc., priority 2021, published 2024).)
